# Measurements as given in the supplement of paper PMC10307832.
# Columns and labels:
# Test in all cases: relative viability (nuclei count vs DMSO), 5 days (fraction); higher = more cells survive
# Everolimus + Pictilisib = compound: CO[C@H]1C[C@@H]2CC[C@@H](C)[C@@](O)(O2)C(=O)C(=O)N2CCCC[C@H]2C(=O)O[C@H]([C@H](C)C[C@@H]2CC[C@@H](OCCO)[C@H](OC)C2)CC(=O)[C@H](C)/C=C(\C)[C@@H](O)[C@@H](OC)C(=O)[C@H](C)C[C@H](C)/C=C/C=C/C=C/1C [Everolimus] + CS(=O)(=O)N1CCN(Cc2cc3nc(-c4cccc5[nH]ncc45)nc(N4CCOCC4)c3s2)CC1 [Pictilisib] (partner 1 µM)
# Procedure, shortened: (§1)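 Five library-drug doses in √10 steps were combined with a fixed anchor-drug dose, or a single drug was given alone, by pin tool to lung cancer cell lines in 1536-well plates the day after seeding. Nuclei were stained and counted after 5 days. Relative viability is the nuclei count in treated wells over that in vehicle wells, taken as the median of duplicate plates.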
# Everolimus + Trametinib = compound: CO[C@H]1C[C@@H]2CC[C@@H](C)[C@@](O)(O2)C(=O)C(=O)N2CCCC[C@H]2C(=O)O[C@H]([C@H](C)C[C@@H]2CC[C@@H](OCCO)[C@H](OC)C2)CC(=O)[C@H](C)/C=C(\C)[C@@H](O)[C@@H](OC)C(=O)[C@H](C)C[C@H](C)/C=C/C=C/C=C/1C [Everolimus] + CC(=O)Nc1cccc(-n2c(=O)n(C3CC3)c(=O)c3c(Nc4ccc(I)cc4F)n(C)c(=O)c(C)c32)c1 [Trametinib] (partner 0.02 µM)
# Procedure, shortened: as §1
# Everolimus + Bortezomib = compound: CO[C@H]1C[C@@H]2CC[C@@H](C)[C@@](O)(O2)C(=O)C(=O)N2CCCC[C@H]2C(=O)O[C@H]([C@H](C)C[C@@H]2CC[C@@H](OCCO)[C@H](OC)C2)CC(=O)[C@H](C)/C=C(\C)[C@@H](O)[C@@H](OC)C(=O)[C@H](C)C[C@H](C)/C=C/C=C/C=C/1C [Everolimus] + CC(C)C[C@H](NC(=O)[C@H](Cc1ccccc1)NC(=O)c1cnccn1)B(O)O [Bortezomib] (partner 0.002 µM)
# Procedure, shortened: as §1
# Everolimus + Olaparib = compound: CO[C@H]1C[C@@H]2CC[C@@H](C)[C@@](O)(O2)C(=O)C(=O)N2CCCC[C@H]2C(=O)O[C@H]([C@H](C)C[C@@H]2CC[C@@H](OCCO)[C@H](OC)C2)CC(=O)[C@H](C)/C=C(\C)[C@@H](O)[C@@H](OC)C(=O)[C@H](C)C[C@H](C)/C=C/C=C/C=C/1C [Everolimus] + O=C(c1cc(Cc2n[nH]c(=O)c3ccccc23)ccc1F)N1CCN(C(=O)C2CC2)CC1 [Olaparib] (partner 8 µM)
# Procedure, shortened: as §1
Cell Line,relative viability (Everolimus + Pictilisib; first compound 0.01 µM),relative viability (Everolimus + Pictilisib; first compound 0.1 µM),relative viability (Everolimus + Pictilisib; first compound 0.3162 µM),relative viability (Everolimus + Pictilisib; first compound 1 µM),relative viability (Everolimus + Trametinib; first compound 0.01 µM),relative viability (Everolimus + Trametinib; first compound 0.03162 µM),relative viability (Everolimus + Trametinib; first compound 0.1 µM),relative viability (Everolimus + Trametinib; first compound 0.3162 µM),relative viability (Everolimus + Trametinib; first compound 1 µM),relative viability (Everolimus + Bortezomib; first compound 0.01 µM),relative viability (Everolimus + Bortezomib; first compound 0.1 µM),relative viability (Everolimus + Bortezomib; first compound 0.3162 µM),relative viability (Everolimus + Bortezomib; first compound 1 µM),relative viability (Everolimus + Olaparib; first compound 0.01 µM),relative viability (Everolimus + Olaparib; first compound 0.03162 µM),relative viability (Everolimus + Olaparib; first compound 0.1 µM),relative viability (Everolimus + Olaparib; first compound 0.3162 µM),relative viability (Everolimus + Olaparib; first compound 1 µM),relative viability (Everolimus + Pictilisib; first compound 0.03162 µM),relative viability (Everolimus + Bortezomib; first compound 0.03162 µM)
NCI-H650,0.688,0.498,0.569,0.505,1,0.687,0.664,0.593,0.497,0.649,0.556,0.571,0.458,0.397,0.37,0.373,0.284,0.307,–,–
NCI-H661,0.301,0.235,0.305,0.296,0.407,0.376,0.343,0.409,0.318,0.592,0.518,0.421,0.386,0.672,0.64,0.576,0.593,0.491,0.253,0.572
NCI-H727,0.268,0.309,0.239,0.275,0.433,0.385,0.337,0.363,0.342,0.513,0.434,0.597,0.52,0.719,0.673,0.569,0.524,0.755,0.274,0.546
NCI-H838,0.222,0.247,0.208,0.262,0.288,0.267,0.278,0.263,0.28,0.42,0.377,0.41,0.597,0.493,0.484,0.494,0.479,0.403,0.219,0.48
NCI-H1355,0.251,0.181,0.265,0.275,0.244,0.24,0.215,0.263,0.244,0.611,0.593,0.592,0.564,0.486,0.514,0.426,0.536,0.48,0.238,0.567
NCI-H1437,0.159,0.135,0.165,0.18,0.383,0.348,0.374,0.313,0.249,0.443,0.342,0.302,0.413,0.632,0.622,0.588,0.596,0.598,0.149,0.505
NCI-H1650,0.47,0.477,0.515,0.469,0.48,0.489,0.437,0.481,0.58,0.196,0.179,0.243,0.199,0.893,0.934,0.791,0.834,0.849,0.473,0.186
NCI-H1651,0.368,0.352,0.427,0.39,0.774,0.657,0.605,0.592,0.538,0.766,0.8,0.731,0.564,0.185,0.201,0.254,0.229,0.211,0.324,0.66
NCI-H1666,0.295,0.309,0.341,0.295,0.832,0.911,0.867,0.851,0.705,0.644,0.494,0.56,0.533,0.725,0.779,0.781,0.731,0.823,0.344,0.527
NCI-H1734,0.285,0.259,0.316,0.336,0.502,0.473,0.404,0.453,0.46,0.529,0.497,0.515,0.546,0.448,0.409,0.456,0.406,0.407,0.341,0.624
NCI-H1755,0.334,0.292,0.354,0.329,0.666,0.579,0.553,0.545,0.453,0.785,0.736,0.723,0.714,0.764,0.592,0.697,0.556,0.588,0.381,0.492
NCI-H1792,0.189,0.121,0.148,0.105,0.196,0.251,0.215,0.164,0.16,0.819,0.657,0.572,0.538,0.21,0.155,0.167,0.113,0.119,0.14,0.705
NCI-H1915,0.622,0.493,0.625,0.555,0.233,0.197,0.204,0.228,0.191,0.917,0.977,0.79,0.882,0.282,0.31,0.285,0.26,0.288,0.33,0.864
NCI-H1975,0.223,0.194,0.211,0.199,0.389,0.373,0.287,0.276,0.226,0.335,0.317,0.372,0.313,0.752,0.654,0.697,0.691,0.655,0.242,0.357
NCI-H1993,0.793,0.715,0.786,0.86,0.423,0.469,0.486,0.464,0.536,0.571,0.598,0.567,0.64,0.584,0.364,0.499,0.529,0.558,0.739,0.521
NCI-H2009,0.565,0.394,0.673,0.504,0.132,0.121,0.14,0.138,0.158,0.739,0.484,0.864,0.812,0.601,0.456,0.364,0.492,0.446,0.591,0.863
NCI-H2023,0.164,0.135,0.174,0.111,0.259,0.216,0.247,0.187,0.225,0.667,0.534,0.615,0.335,0.276,0.294,0.253,0.256,0.296,0.144,0.527
NCI-H2085,0.346,0.368,0.348,0.377,0.313,0.329,0.299,0.264,0.297,0.956,0.726,0.805,0.711,0.704,0.75,0.698,0.705,0.583,0.358,0.827
NCI-H2087,0.502,0.48,0.722,0.591,0.158,0.137,0.185,0.161,0.143,0.699,0.625,0.75,0.837,0.491,0.444,0.524,0.465,0.508,0.595,0.957
NCI-H2126,0.373,0.359,0.392,0.409,0.39,0.362,0.371,0.343,0.383,0.736,0.66,0.714,0.738,0.714,0.583,0.502,0.602,0.603,0.34,0.668
NCI-H2228,0.28,0.209,0.289,0.243,0.33,0.237,0.256,0.251,0.265,0.705,0.645,0.515,0.614,0.658,0.289,0.336,0.266,0.311,0.206,0.7
NCI-H2347,0.288,0.4,0.368,0.358,0.266,0.337,0.244,0.261,0.286,0.749,0.752,0.602,0.528,0.565,0.54,0.527,0.525,0.505,0.281,0.658
NCI-H2405,0.265,0.294,0.294,0.275,0.419,0.362,0.385,0.426,0.431,0.783,0.783,0.726,0.744,0.757,0.745,0.681,0.713,0.686,0.291,1.07
NCI-H3122,0.364,0.288,0.372,0.348,0.167,0.147,0.172,0.141,0.11,1.05,1.06,1.08,1.01,0.638,0.643,0.497,0.476,0.579,0.421,1.16
PC-3 [JPC-3],0.581,0.516,0.622,0.53,0.601,0.582,0.531,–,0.681,0.703,0.846,0.774,0.889,1.07,1.21,1.1,–,1.05,0.585,0.798
PC-14,0.411,0.239,0.21,0.342,0.297,0.444,0.23,0.36,0.276,0.876,0.864,0.658,0.713,0.46,0.434,0.298,0.343,0.411,0.191,0.84
RERF-LC-KJ,0.345,0.214,0.409,0.238,0.654,0.613,0.495,0.494,0.524,0.92,0.731,0.64,0.611,0.666,0.61,0.593,0.605,0.606,0.445,0.621
SK-LU-1,0.296,0.289,0.341,0.345,0.39,0.355,0.298,0.345,0.317,0.674,0.909,0.618,0.769,0.423,0.378,0.301,0.389,0.362,0.307,0.742
SW 1573,0.303,0.28,0.304,0.249,0.3,0.311,0.291,0.303,0.281,0.707,0.602,0.491,0.636,0.264,0.384,0.314,0.268,0.3,0.341,0.512
